Assay results from patent US7202274B2, “Cyclic hemiacetal derivative and use thereof” (Senju Pharmaceutical Co., Ltd., priority 2002, dated 2007).
Like-named read-outs stand apart in the source and are kept apart here. Blank lines part the entries; values can stand above or below the compound they belong to.

Experiments:
[1] = system: N1E-115 cells; assay type: cell-based; conditions: mouse, 24 h
Experimental: Mouse neuroblastoma derived cell lines (N1E-115 cells) were seeded in a 96 well microplate at 10^4 per well and cultured overnight in Dulbecco's Modified Eagle's Minimum Essential Medium (100 μL, DMEM, GIBCO) containing 10% FBS at 37° C. under 5% CO2. The whole amount of the culture solution was removed, and the medium was changed to various concentrations of a test drug solution (100 μL, prepared by dissolving Compound 1 in 99.5% ethanol and adjusting final concentration of ethanol to 1% with DMEM) and the cells were cultured for 24 hr. The culture supernatant and cells were separately recovered. The cells were ultrasonicated to give soluble fractions and the lactic dehydrogenase (LDH) activity of each of them was determined with an LDH cytotoxicity detection kit (MK401, manufactured by Takara Bio Inc.), and an LDH release rate was determined by the following formula and taken as a proportion of the cells suffered from cytotoxicity. LDH release rate (%)={LDH activity of culture supernatant/(LDH activity of culture supernatant+intracellular LDH activity)}×100
LD50 was determined from the LDH release rate at each test drug concentration by LD50/ED50 probit method of SAS preclinical package (Ver. 6.12).

[2] = Aqueous humor penetration test; assay type: in vivo, Japanese white rabbits; conditions: rabbit
Experimental: The suspension of Formulation Example 4 to be mentioned later was instilled by 50 μL into the both eyes of Japanese white rabbits (body weight about 2 kg, purchased from Fukusaki Rabbit Union). At 0.25, 0.5, 1 and 3 hr after the instillation, the rabbits were sacrificed with pentobarbital and aqueous humor was recovered. Using a column switching system HPLC, the concentration of Compound 1 in the aqueous humor was measured.

melting point: 51.3 to 52.9 °C
SMILES: CCC(C)[C@H](NC(=S)Nc1ccccc1)C(=O)N[C@H]1CCOC1O (stereo partly drawn) [Compound 2, (2S)-3-methyl-2-(((phenylamino)thioxomethyl)amino)-N-((3S)-tetrahydro-2-hydroxy-3-furanyl)pentanamide]

SMILES: CC(C)C[C@H](NC(=S)Nc1ccccc1)C(=O)N[C@H]1CCOC1O (stereo partly drawn) [Compound 1, (2S)-4-methyl-2-(((phenylamino)thioxomethyl)amino)-N-((3S)-tetrahydro-2-hydroxy-3-furanyl)pentanamide]
LDH release rate ([1]; 0.1 mM): 9.32 ± 0.07% | LDH release rate ([1]; 0.5 mM): 11.05 ± 0.72% | LDH release rate ([1]; 1 mM): 14.22 ± 1.14% | LDH release rate ([1]; 2 mM): 47.73 ± 1.66% | AUC ([2]; Japanese white, aqueous humor, topical, 50 μL per eye, 0-3 hr after the instillation of the suspension of Formulation Example 4, read-out: area under drug concentration-time curve (AUC) of amount penetrated to aqueous humor): 4.79 µM·h | Cmax ([2]; Japanese white, aqueous humor, topical, 50 μL per eye, 50 μL instillation of the suspension of Formulation Example 4, read-out: concentration in the aqueous humor, maximum (Cmax)): 2900 nM | time at which concentration in the aqueous humor reached the maximum ([2]; 50 μL instillation of the suspension of Formulation Example 4): 0.5 h

melting point: 57.9 to 58.9 °C
SMILES: Cc1ccccc1NC(=S)N[C@@H](CC(C)C)C(=O)N[C@H]1CCOC1O (stereo partly drawn) [Compound 9, (2S)-4-methyl-2-((((2-methylphenyl)amino)thioxomethyl)amino)-N-((3S)-tetrahydro-2-hydroxy-3-furanyl)pentanamide]

melting point: 61.4 to 61.9 °C
SMILES: Cc1cccc(NC(=S)N[C@@H](CC(C)C)C(=O)N[C@H]2CCOC2O)c1 (stereo partly drawn) [Compound 10, (2S)-4-methyl-2-((((3-methylphenyl)amino)thioxomethyl)amino)-N-((3S)-tetrahydro-2-hydroxy-3-furanyl)pentanamide]
